System: PR/SET domain 16 (PRDM16)
Assay: qPCR expression of thermogenesis gene PRDM16 in brown adipose tissue
Assay type: in vivo, C57BL6 mice
Settings: mRNA, brown adipose tissue (BAT), high-fat diet mice; compared to HFD group
Procedure: Five-week-old male C57BL6 mice were purchased and acclimated for one week. Then, the mice in each group (n=10) were fed a low-fat diet or high-fat diet. After first allowing them to consume a low-fat diet or high-fat diet for a week, the mice in each group were orally administered with Lactobacillus plantarum HAC03, quercetin, or rutin once a day for 14 weeks.
Then, the expression levels of lipogenesis-related genes were measured at the mRNA level through qPCR.
Specifically, the colons of mice in each experimental group were homogenized, dissolved in Trizol® (RNA extraction buffer, Thermo Fisher), and RNA was extracted according to the protocol provided by the manufacturer. The extracted RNA was quantified, and an equal amount of RNA was synthesized into cDNA by reverse transcription using the SuperiorScript III cDNA synthesis Kit (Enzynomics, Daejeon, South Korea). Thereafter, real-time PCR was performed using each gene-specific primer in Table 3, TOPreal qPCR 2X premix (SYBR Green with high ROX) (Enzynomics, Daejeon, South Korea), and cDNA. Real-time PCR was performed using the ABI 7500 Fast Real time PCR system (Applied Biosystems, Waltham, MA, USA). The relative gene expression levels were calculated using the ÄÄCt method.

O=c1c(O)c(-c2ccc(O)c(O)c2)oc2cc(O)cc(O)c12 [Q, Quercetin]
expression level of PRDM16: increased

— patent US20250268960A1, “COMPOSITION FOR PREVENTION AND TREATMENT OF OBESITY OR INSULIN RESISTANCE SYNDROME COMPRISING LACTOBACILLUS PLANTARUM HAC03 AND RUTIN” (HANDONG GLOBAL UNIVERSITY INDUSTRY-ACADEMIC COOPERATION …, priority 2023, published 2025)
